Data as given in patent US7776826B2, “Method for fostering bone formation and preservation” (Unigene Laboratories, Inc., priority 2004, dated 2010).

How the values were obtained:
Format in all cases: in vivo, rat
Male Sprague-Dawley rats [1] = assay: Serum osteocalcin concentration at day 21, Groups K-R
Excerpt: FIG. 12 provides a measurement of the serum osteocalcin concentration (in ng/ml) in the blood of the rats in Groups K-R when the rats were sacrificed 21 days after commencement of treatment. The meaning of the abbreviated terms is the same as in FIGS. 10 and 11. […] [*=p value<0.05, while **=p value<0.01];
FIG. 12 is a bar graph which sets forth the osteocalcin levels determined, at the time of sacrifice, in the blood serum of the rats which were the subject of the analyses illustrated in FIGS. 10 and 11. As indicated above, it is well known that osteocalcin is a biochemical marker indicative of new bone growth.
The table additionally includes the standard deviations for the values obtained for each analysis, which standard deviations are also included in FIG. 12.

Male Sprague-Dawley rats [2] = assay: MicroCT analysis of femoral shafts, Groups K-R; conditions: left femoral shaft with bmx, agent for 21 days
Excerpt: FIG. 13(a-b) illustrate the results of Micro Computerized Tomography (MicroCT) analysis of the left (ablated) and right (non-ablated) femoral shafts of the rats of Groups K-R. The abbreviations are the same as those used in FIGS. 10-12;
FIG. 13 (a-b) provides a comparison between Micro Computerized Tomography (MicroCT) analyses of bone samples taken from the left femoral shaft (FIG. 13a) and the right femoral shaft (FIG. 13b) of rats treated in the manner indicated in FIGS. 10-12. As in the other cases discussed above, the most significant amount of new bone growth is found in the shaft of the left femur, since this shaft was subjected to the bmx treatment. […] In contrast, the right femoral shaft sections show very little or no increase in bone growth at all.

Male Sprague-Dawley rats [3] = assay: High resolution radiograms of left and right femurs, Groups K-R; conditions: left femur with bmx, agent daily for 21 days
Excerpt: FIG. 10 (a-b) presents high resolution radiograms of the left and right femurs, respectively, from an additional series of experiments on additional groups of male Sprague-Dawley rats (6 rats per group) aged 9 weeks which were sacrificed and tested after 21 days (3 weeks). The various groups were subjected to the following treatment modalities: Group K—control day 0; Group L—control day 21; Group M—bone marrow ablation (bmx) day 0; Group N—sham day 21; Group O— bmx+phosphate buffer saline (PBS) daily for 21 days; Group P—bmx+PTH[1-34]-NH2 daily for 21 days; Group Q—bmx+ parathyroid hormone related peptide (PTHRP) daily for 21 days; and Group R—bmx+rat α-calcitonin gene related peptide (CGRP) daily for 21 days;
FIG. 10 (a-b) presents a set of high resolution radiograms of the entire left and right femurs of additional (to those described above) groups of rats, injected daily for a designated term with one or more of the following agents: phosphate buffer saline (PBS); parathyroid hormone (PTH[1-34]-NH2); parathyroid hormone related peptide (PTHrP); and calcitonin gene related peptide (CGRP). The rats chosen for test subjects were subjected to the following treatment modalities (as indicated in the lower left corner of each of the radiograms): control day 0; control day 21; bone marrow ablation (bmx) day 0; sham day 21; bmx followed by injection of PBS buffer daily for 21 days; bmx followed by injection of PTH daily for 21 days; bmx followed by injection of PTHrP daily for 21 days; and bmx followed by injection of CGRP daily for 21 days.
As shown by FIG. 10(a), the best results, i.e., the greatest bone density, was obtained in the left femur wherein the effect of the bone marrow ablation overlapped with that attributable to the administration of the various anabolic agents. As in the case of FIG. 3, the lighter, i.e, more radio-opaque, areas indicate the locations of the greatest additional bone growth.

[4] = tested on: osteoporotic female Sprague-Dawley rats; assay: Lumbar vertebral bone mineral density and bone formation rate in ovariectomized osteoporotic rats, without mechanical induction; conditions: OVX rats, 4 weeks subcutaneous treatment, no mechanical induction
Protocol: FIG. 15 is a bar graph comparing the Lumbar Vertebral Bone Mineral Density obtained in osteoporotic female Sprague-Dawley rats wherein the osteoporosis was induced via an ovariectomy. The rats were treated with (1) PTH[1-31]-NH2; (2) PTH[1-34]-NH2; and PTH[1-34]-OH; and
FIG. 16 is a bar graph comparing the Lumbar Vertebral Bone Formation Rate obtained in osteoporotic female Sprague-Dawley rats wherein the osteoporosis was induced via an ovariectomy. The rats were treated with (1) PTH[1-31]-NH2; (2) PTH[1-34]-NH2; and PTH[1-34]-OH.
A series of experiments was performed comparing (1) lumbar vertebral bone mineral density, and (2) lumbar vertebral bone formation rate achieved with PTH[1-31]-NH2 and PTH[1-34]-OH compared to the preferred PTH[1-34]-NH2 analog discussed above in the absence of the mechanical induction step of the invention. The study involved a four-week treatment of female Sprague-Dawley rats at 10 months of age, and 6 months post-ovariectomy (“OVX”), which induces osteoporosis, with one of the three above-noted parathyroid hormone truncates. The rats were randomized into the following groups: sham OVX, OVX+ vehicle, OVX+PTH [1-31]-NH2 or PTH [1-34]-NH2 (obtained from Unigene Laboratories, Inc.) at 2.5, 10 or 40 μg/kg/day subcutaneous, or PTH[1-34]-OH (obtained from Bachem) at 10 μg/kg/day subcutaneous. After 4 weeks of treatment, the right femur of each animal was analyzed by DEXA and bone histomorphometry. FIG. 15 is a bar graph providing a comparison of the lumbar vertebral bone mineral density achieved with PTH[1-31]-NH2, PTH[1-34]-NH2 and PTH[1-34]-OH. FIG. 16 is a bar graph comparing the lumbar vertebral formation rates achieved with these same truncates. […] Because of the similarity of anabolic action among the above-discussed parathyroid hormones, it is therefore reasonable to expect that all known PTH analogs will advantageously function in the desired manner in the method of the present invention.

PTH[1-34]-NH2
osteocalcin level, in words (Male Sprague-Dawley rats [1]; bmx + agent daily for 21 days): highest osteocalcin level | Osteocalcin mean (Male Sprague-Dawley rats [1]; bmx rats, day 21, agent daily for 21 days, Groups K-R): 141.5 ng/mL | new bone growth in MicroCT, in words (Male Sprague-Dawley rats [2]): significant degree of improvement | bone density on radiograms, in words (Male Sprague-Dawley rats [3]): best results | bone anabolic activity (lumbar vertebral bone mineral density and bone formation rate) [4]: substantially equivalent
